The target in one data set is MGL, Ser339Ala (Citrobacter freundii, UniProt Q84AR1, S339A). The data set is described as follows: biochemical. Type of data set: biochemical. On the procedure:
The kinetic parameters of the γ- and β-elimination reactions were determined at 30°C in the conjugate reaction with HOHxoDH or LDH based on a decrease in NADH absorbance at 340 nm (Δε = 6,220 M^–1cm^–1). The reaction mixtures contained a 100-mM potassium phosphate buffer, pH 8.0, 0.1 mM PLP, 1 mM DTT, 0.2 mM NADH, 70 μg HOHxoDH or 10 U LDH, and variable amounts of the substrate in a total volume of 1 mL. The reaction was initiated by the addition of 10 μg of the enzyme.
The kinetic parameters were calculated according to the Michaelis–Menten equation using the EnzFitter software. In the calculations, an enzyme subunit molecular weight of 43 kDa was used. The inhibition constants were also determined using the EnzFitter software.

The next data set addresses Ser339Ala MGL (Citrobacter freundii, UniProt Q84AR1, S339A). The data set is described as follows: coenzyme (PLP) dissociation constant by ultrafiltration, Ser339Ala MGL apoenzyme. Type of data set: binding. The following applies: mutant enzyme, pH 8.0, 30°C, Scatchard coordinates. On the procedure:
The apoenzyme and holoenzyme were prepared in a 50-mM potassium phosphate buffer, pH 8.0, containing 1 mM DTT and 1 mM EDTA. The holoenzyme was prepared by adding a 50-fold molar excess of PLP. The mixture was incubated at 25°C for 1 h. The excess PLP was removed by dialysis. The apoenzyme was prepared by adding a 100-fold molar excess of DL-penicillamine to the sample [42]. The mixture was incubated at 25°C for 1 h. DL-Penicillamine was removed by dialysis. The procedure was repeated until the enzyme activity decreased to 1% of the initial activity. The PLP content in the sample was determined in 100 mM NaOH using the molar extinction coefficient of PLP at 390 nm (ε = 6,600 M^–1cm^–1 [43]).
The PLP dissociation constant was determined by ultrafiltration. Varying amounts of PLP (in a range of 5 × 10^–3 to 1.2 × 10^–1 mM) were added to the 8 × 10^–3 mM apoenzyme in a 50-mM potassium phosphate buffer, pH 8.0, containing 1 mM DTT and 1 mM EDTA. After incubation at 30°C for 30 min, free PLP was separated by centrifugation in a Centricon-30 microconcentrator (Amicon, United States) at 5,000 rpm and 4°C for 5 min. The PLP content in each sample was determined in 100 mM NaOH. The data were processed in Scatchard coordinates.

The subject of a further data set is CSCC[C@H](N)C(=O)O. Briefly: purified protein, by the assay type. To be noted: other: Ser339Ala MGL, 30°C, pH 8.0, coupled with HOHxoDH or LDH.

As usually defined, the Ki is a measure of affinity in units of concentration, obtained from inhibition or displacement. For orientation: Kd means a measure of binding affinity in units of concentration. As a reminder, the Km is the substrate concentration at which the rate is half of its maximum. By kcat is commonly meant the maximal rate divided by the concentration of active sites.

`C[C@H](N)C(=O)O` [L-Ala, L-alanine]: the inhibition constant (Ki) on MGL, Ser339Ala came to 1250 ± 320 µM.
`Cc1ncc(COP(=O)(O)O)c(C=O)c1O` [PLP, pyridoxal 5’-phosphate]: on Ser339Ala MGL, the Kd came out at 1.01 µM.
“MGL, Ser339Ala (Citrobacter freundii; S339A)”: in the data set on CSCC[C@H](N)C(=O)O, the Michaelis constant (Km) turned out to be 1840 ± 150 µM and the kcat is 0.21 s⁻¹.

For the origin of these results see publication PMC9307983 (Acta Naturae, 2022).
